In patent US20260232682A1, “GSPT1 DEGRADER COMPOUNDS” (Captor Therapeutics S.A., priority 2023, published 2026):

How the values were obtained:
[1] = biological target: CRBN/DDB1 protein complex (Homo sapiens, UniProt Q96SW2); experiment: CRBN displacement TR-FRET assay; conditions: Thalidomide-Red tracer, 6×His-CRBN/DDB1; read-out: CRBN binding Ki
Description: CRBN/DDB1 protein complex was mixed with Thalidomide-Red and a compound to be tested (the “test compound”). The test solution contained PPI Europium detection buffer, 1 mM DTT, 6.8 nM Thalidomide-Red (the tracer), 5 nM 6×His-CRBN/DDB1 protein, 0.5 nM Anti-6× His-Eu cryptate, 1% DMSO. The test solution was added to a 384-well assay plate.
The plate was spun-down (1 min, 1000 rpm, 22° C.) and then shaken using a VibroTurbulator for 30 sec at room temperature (20-25° C.), with the frequency set to level 10. The assay plate with protein and the tracer was incubated for 180 min at room temperature (20-25° C.) prior to read-out with a plate reader. The read-out was performed with plate reader (Pherastar, BMG Labtech) in time resolved fluorescence mode. Filter settings: TR 337 665 620.
The CRBN displacement TR-FRET experiment was carried out with various concentrations of the test compounds in order to measure Ki values.
The Ki values of competitive inhibitors were calculated using the equation based on the IC50 values of relationship between compound concentration and measured […], the Kd value of the Thalidomide-Red and CRBN/DDB1 complex, and the concentrations of the protein and the tracer in the displacement assay (as described by Cheng and Prusoff, Biochem Pharmacol 1973; 22:3099-3108).

[2] = biological target: T1, [GSPT1]-[compound of formula (I)]-[CRBN/DDB1] complex (Homo sapiens, UniProt P15170+Q96SW2); experiment: AlphaLISA ternary complex formation assay (GSPT1); assay type: binding; conditions: 0.5 h; 1 μM compound; normalized to reference compound CC-885; read-out: Normalized AlphaLISA ternary complex average signal at 1 μM molecule
Description: The effect of the molecular glue compounds of the invention on the formation of a ternary complex composed of [GSPT1]-[compound of formula (I)]-[CRBN/DDB1] was investigated with two methods: AlphaLISA dose response assay or HTRF ternary complex assay.
Two types of protein solution were prepared: • 200 nM biotinylated GSPT1 (Table 3), 40 μg/ml AlphaScreen Streptavidin-coated Donor Beads in HBS (10 mM HEPES, 150 mM NaCL, pH 7.4) buffer with 0.1% Tween-20 and 1 mM DTT, • 200 nM 6×His-CRBN/DDB1, 40 μg/ml AlphaLISA Anti-6×His Acceptor beads in HBS buffer with 0.1% Tween-20 and 1 mM DTT.
(§1) The prepared solutions were incubated at room temperature for 30 min and then the solution containing the donor beads was mixed with the solution containing the acceptor beads.
(§2) The tested compounds were dispensed onto a white 384-well AlphaPlate 384 SW. DMSO was backfilled to all wells, resulting in a final DMSO content of 2%. Wells containing only DMSO served as background. Next, 10 μl of solution with donor and acceptor beads was added to the wells.
(§3) The plate was sealed with transparent film and shaken using a VibroTurbulator for 60 sec at room temperature, level 3. The plate was then spun down shortly (10 sec, 1000 rcf, room temperature) and incubated at 25° C. for 30 min.
(§4) The read-out was performed with PerkinElmer Enspire Multimode Plate Reader (method for AlphaLISA 384-well low volume, Filterset: λexc=680 nm, λem=615 nm).
(§5) The results were analyzed as follows: • 1) an average of luminescence for background signal was calculated and used as a negative control; • 2) average of the maximum measured luminescence for reference compound (structure shown in Table 3 below) was calculated and used as an internal positive control; • 3) raw luminescence values were normalized against positive and negative controls; • 4) Normalized responses to positive control were determined.

[3] = biological target: T1, [GSPT1]-[compound of formula (I)]-[CRBN/DDB1] complex; experiment: HTRF ternary complex assay (GSPT1); assay type: binding; conditions: read-out: HTRF ternary complex Average pEC50 by molecule (converted)
Description: The effect of the molecular glue compounds of the invention on the formation of a ternary complex composed of [GSPT1]-[compound of formula (I)]-[CRBN/DDB1] was investigated.
Mix solution of proteins and reagents was prepared: • 48 nM GSPT1, 52.8 nM 6×His-CRBN/DDB1, 3 nM of Streptavidin-Eu cryptate ([…]) and 6.67 nM of Anti-6×his-d2 ([…]) was prepared in PPI Europium detection buffer (purchased from Cisbio) with 1 mM DTT.
The tested compounds in dose-response were dispensed onto a white 384-well low volume plate (Greiner, 784075). DMSO was backfilled to all wells, resulting in a final DMSO content of 0.5%. Wells containing only DMSO served as background.
The plate was sealed with transparent film and shaken using a VibroTurbulator for 60 sec at level 3.
The plate was then spun down shortly (10 sec, 1000 rcf) and incubated at 25° C. for 180 min.
The read-out was performed with plate reader (Pherastar, BMG Labtech) in time resolved fluorescence mode. Filter settings: TR 337 665 620.
The results were analyzed as follows: • 1) an average of fluorescence for background signal was calculated and used as a negative control; • 2) raw fluorescence values for tested compounds were normalized against negative controls; • 3) saturation curve was fitted to specific binding with Hill slope model; • 4) EC50 and pEC50 values were determined.

[4] = biological target: T2, [SALL4 ZF2]-[compound]-[CRBN/DDB1] ternary complex (Homo sapiens, UniProt Q96SW2+Q9UJQ4); experiment: AlphaLISA assay for off-target recruitment detection, SALL4 ZF2; assay type: binding; conditions: 1 μM compound, normalized to Lenalidomide; for activation at 1 µM: read-out: Normalized ternary complex response, SALL4 ZF2
T2 construct: SALL4 ZF2
Description: (§6) The ability of the molecular glue compounds of the invention to mediate the proximity of CRBN with its known neo-substrates (shown in Table 3) was assessed using AlphaLISA to detect the formation of a [neo-substrate]-[compound of formula (I)]-[CRBN/DDB1] ternary complex.
(§7) Two types of protein solution were prepared: • neo-substrate, 40 μg/ml AlphaScreen Donor Beads (Table 3) in PBS (10 mM phosphate buffer, 137 mM NaCL, 2.7 mM KCl, pH 7.4) buffer supplemented with Tween-20 (Table 3) and 1 mM DTT, • 200 nM 6×His-CRBN/DDB1, 40 μg/ml AlphaLISA Anti-6×His Acceptor beads in PBS buffer with Tween-20 (Table 3) and 1 mM DTT.
as §1, §2, §3, §4
as §5, with “2) an” for “2)”, “compound (Table 3)” for “compound (structure shown in Table 3 below)”, “to reference molecular glue” for “to positive control”

[5] = biological target: T3, [IKZF1 ZF2]-[compound]-[CRBN/DDB1] ternary complex (Homo sapiens, UniProt Q13422+Q96SW2); experiment: AlphaLISA assay for off-target recruitment detection, IKZF1 ZF2; assay type: binding; conditions: 1 μM compound, normalized to Lenalidomide; for activation at 1 µM: read-out: Normalized ternary complex response, IKZF1 ZF2
T3 construct: IKZF1 ZF2
Description: as §6, §7, §1, §2, §3, §4
as §5, with “2) an” for “2)”, “compound (Table 3)” for “compound (structure shown in Table 3 below)”, “to reference molecular glue” for “to positive control”

[6] = biological target: T4, [IKZF2 ZF2]-[compound]-[CRBN/DDB1] ternary complex (Homo sapiens, UniProt Q96SW2+Q9UKS7); experiment: AlphaLISA assay for off-target recruitment detection, IKZF2 ZF2; assay type: binding; conditions: 1 μM compound, normalized to Helios modulator; for activation at 1 µM: read-out: Normalized ternary complex response, IKZF2 ZF2
T4 construct: IKZF2 ZF2
Description: as §6, §7, §1, §2, §3, §4
as §5, with “2) an” for “2)”, “compound (Table 3)” for “compound (structure shown in Table 3 below)”, “to reference molecular glue” for “to positive control”

[7] = biological target: [CK1α]-[compound]-[CRBN/DDB1] ternary complex (Homo sapiens, UniProt P48729+Q96SW2); experiment: AlphaLISA assay for off-target recruitment detection, CK1α; assay type: binding; conditions: 1 μM compound, normalized to FPFT-2216; for activation at 1 µM: read-out: Normalized ternary complex response, CK1α
Description: as §6, §7, §1, §2, §3, §4
as §5, with “2) an” for “2)”, “compound (Table 3)” for “compound (structure shown in Table 3 below)”, “to reference molecular glue” for “to positive control”

T4 sequence (Q9UKS7 140-162 limits assumed): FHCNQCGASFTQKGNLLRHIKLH
T4 sequence (Q96SW2 whole entry): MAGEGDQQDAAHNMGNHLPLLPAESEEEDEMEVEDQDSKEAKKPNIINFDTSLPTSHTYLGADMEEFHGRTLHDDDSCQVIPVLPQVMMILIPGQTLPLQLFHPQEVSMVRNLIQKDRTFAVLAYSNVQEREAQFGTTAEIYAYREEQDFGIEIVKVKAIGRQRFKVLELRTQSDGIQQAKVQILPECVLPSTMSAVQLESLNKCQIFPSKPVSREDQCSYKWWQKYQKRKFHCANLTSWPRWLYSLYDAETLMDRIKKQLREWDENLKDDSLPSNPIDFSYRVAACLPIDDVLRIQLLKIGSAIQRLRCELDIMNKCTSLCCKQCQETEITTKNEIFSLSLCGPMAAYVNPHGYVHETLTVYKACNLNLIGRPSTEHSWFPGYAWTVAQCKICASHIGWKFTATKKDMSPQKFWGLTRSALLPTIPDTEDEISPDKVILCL
T4 sequence (Q16531 whole entry partner): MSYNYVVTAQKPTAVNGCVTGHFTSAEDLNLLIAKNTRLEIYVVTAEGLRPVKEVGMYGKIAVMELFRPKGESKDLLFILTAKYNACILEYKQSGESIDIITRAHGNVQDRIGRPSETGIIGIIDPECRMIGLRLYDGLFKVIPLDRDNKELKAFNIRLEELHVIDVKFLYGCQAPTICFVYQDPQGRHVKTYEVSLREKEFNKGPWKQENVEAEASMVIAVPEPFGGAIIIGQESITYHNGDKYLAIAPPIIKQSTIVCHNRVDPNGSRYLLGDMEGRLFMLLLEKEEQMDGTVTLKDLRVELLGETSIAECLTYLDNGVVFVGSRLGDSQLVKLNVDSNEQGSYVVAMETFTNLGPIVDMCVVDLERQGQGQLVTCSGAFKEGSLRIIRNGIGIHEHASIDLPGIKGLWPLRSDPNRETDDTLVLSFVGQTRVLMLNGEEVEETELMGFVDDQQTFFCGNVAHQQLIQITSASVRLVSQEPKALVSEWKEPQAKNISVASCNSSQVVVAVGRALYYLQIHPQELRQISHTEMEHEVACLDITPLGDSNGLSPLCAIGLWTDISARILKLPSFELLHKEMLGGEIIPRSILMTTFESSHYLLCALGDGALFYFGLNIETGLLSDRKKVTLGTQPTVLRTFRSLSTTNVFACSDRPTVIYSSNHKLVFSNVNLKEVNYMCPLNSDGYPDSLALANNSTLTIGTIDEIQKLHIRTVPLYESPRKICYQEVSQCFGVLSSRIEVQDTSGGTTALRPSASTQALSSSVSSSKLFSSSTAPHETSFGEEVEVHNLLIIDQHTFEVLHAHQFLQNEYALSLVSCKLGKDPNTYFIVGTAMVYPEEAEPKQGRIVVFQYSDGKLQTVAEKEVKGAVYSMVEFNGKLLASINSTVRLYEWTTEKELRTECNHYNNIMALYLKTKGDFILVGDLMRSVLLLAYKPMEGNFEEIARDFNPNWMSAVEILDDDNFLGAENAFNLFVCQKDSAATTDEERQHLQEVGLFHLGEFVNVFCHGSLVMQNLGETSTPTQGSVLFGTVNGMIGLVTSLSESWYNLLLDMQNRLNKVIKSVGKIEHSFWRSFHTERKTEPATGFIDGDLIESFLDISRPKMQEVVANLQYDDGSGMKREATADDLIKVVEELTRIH
Chain of CRBN/DDB1 protein complex (Q96SW2 whole entry, species assumed): as the sequence (Q96SW2 whole entry) above
Chain of CRBN/DDB1 protein complex (Q16531 whole entry partner, species assumed): as the sequence (Q16531 whole entry partner) above
T1 sequence (P15170 whole entry): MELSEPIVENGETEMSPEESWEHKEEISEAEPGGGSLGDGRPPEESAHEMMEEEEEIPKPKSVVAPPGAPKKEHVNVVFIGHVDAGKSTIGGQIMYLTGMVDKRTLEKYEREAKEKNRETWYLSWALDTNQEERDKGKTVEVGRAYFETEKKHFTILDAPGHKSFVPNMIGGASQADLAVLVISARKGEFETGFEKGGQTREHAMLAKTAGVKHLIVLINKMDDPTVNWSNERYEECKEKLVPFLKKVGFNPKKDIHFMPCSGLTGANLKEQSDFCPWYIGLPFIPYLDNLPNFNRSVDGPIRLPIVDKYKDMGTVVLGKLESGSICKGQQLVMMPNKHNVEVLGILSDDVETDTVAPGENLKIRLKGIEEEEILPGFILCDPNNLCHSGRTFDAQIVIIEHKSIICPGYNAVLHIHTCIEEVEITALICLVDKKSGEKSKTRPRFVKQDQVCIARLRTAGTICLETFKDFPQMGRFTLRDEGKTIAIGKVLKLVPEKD
T1 sequence (Q96SW2 whole entry): as the sequence (Q96SW2 whole entry) above
T1 sequence (Q16531 whole entry partner): as the sequence (Q16531 whole entry partner) above
T3 sequence (Q13422 145-167 limits assumed): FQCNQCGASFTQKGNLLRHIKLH
T3 sequence (Q96SW2 whole entry): as the sequence (Q96SW2 whole entry) above
T3 sequence (Q16531 whole entry partner): as the sequence (Q16531 whole entry partner) above
T2 sequence (Q9UJQ4 410-432 limits assumed): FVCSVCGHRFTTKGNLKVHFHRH
T2 sequence (Q96SW2 whole entry): as the sequence (Q96SW2 whole entry) above
T2 sequence (Q16531 whole entry partner): as the sequence (Q16531 whole entry partner) above
Chain of [CK1α]-[compound]-[CRBN/DDB1] ternary complex (P48729 whole entry): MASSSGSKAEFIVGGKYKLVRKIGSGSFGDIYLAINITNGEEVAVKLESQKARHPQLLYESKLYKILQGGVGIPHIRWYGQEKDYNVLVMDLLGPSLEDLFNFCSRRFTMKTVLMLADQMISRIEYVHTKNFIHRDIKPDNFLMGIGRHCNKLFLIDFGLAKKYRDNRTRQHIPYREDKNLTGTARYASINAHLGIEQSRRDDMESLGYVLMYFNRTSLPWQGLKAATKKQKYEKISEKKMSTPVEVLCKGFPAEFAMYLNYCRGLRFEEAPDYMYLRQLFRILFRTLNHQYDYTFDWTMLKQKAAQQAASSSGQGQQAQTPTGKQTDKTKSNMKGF
Chain of [CK1α]-[compound]-[CRBN/DDB1] ternary complex (Q96SW2 whole entry): as the sequence (Q96SW2 whole entry) above
Chain of [CK1α]-[compound]-[CRBN/DDB1] ternary complex (Q16531 whole entry partner): as the sequence (Q16531 whole entry partner) above

SMILES	Ki [1] [nM]	activation at 1 µM [2] [%]	EC50 [3] [nM]	activation at 1 µM [4] [%]	activation at 1 µM [5] [%]	activation at 1 µM [6] [%]	activation at 1 µM [7] [%]	Normalized ternary complex response, SALL4 ZF2 [4]	Normalized ternary complex response, IKZF1 ZF2 [5]	Normalized ternary complex response, IKZF2 ZF2 [6]	Normalized ternary complex response, CK1α [7]
Cc1nc2ccc(CNC(=O)C(=O)N3CCC(C(C)(C)C)CC3)cc2cc1C1CCC(=O)NC1=O (centres unmarked) [Compound 23, 2-(4-(tert-butyl)piperidin-1-yl)-N-((3-(2,6-dioxopiperidin-3-yl)-2-methylquinolin-6-yl)methyl)-2-oxoacetamide]	< 500	10 to 50	> 3160	25 to 50	< 10	< 10	< 10	–	–	–	–
Cc1nc2ccc(COC(=O)NC3CCCCC3)cc2cc1N1CCC(=O)NC1=O [Compound 60, (3-(2,4-dioxotetrahydropyrimidin-1(2H)-yl)-2-methylquinolin-6-yl)methyl cyclohexylcarbamate]	500 to 1000	10 to 50	316 to 3160	≥ 50	10 to 25	< 10	< 10	–	–	–	–
Cc1ccc(NC(=O)NCc2ccc3c(c2)CN(C2CCC(=O)NC2=O)C3=O)cc1Cl (centres unmarked) [CC-885, reference compound]	–	–	–	–	–	–	–	A (A≥50%)	A (A≥50%)	A (A≥50%)	C (10%≤C<25%)
Cc1ccc(Nc2c(NCc3ccc4cc(C5CCC(=O)NC5=O)c(C)nc4c3)c(=O)c2=O)cc1Cl (centres unmarked) [Compound 3, 3-(7-(((2-((3-chloro-4-methylphenyl)amino)-3,4-dioxocyclobut-1-en-1-yl)amino)methyl)-2-methylquinolin-3-yl)piperidine-2,6-dione]	> 1000	10 to 50	> 3160	< 10	< 10	< 10	< 10	–	–	–	–
Cc1ccc(NC(=O)C(C)Oc2ccc3cc(C4CCC(=O)NC4=O)c(C)nc3c2)cc1Cl (centres unmarked) [Compound 34, N-(3-chloro-4-methylphenyl)-2-((3-(2,6-dioxopiperidin-3-yl)-2-methylquinolin-7-yl)oxy)propenamide]	500 to 1000	< 10	> 3160	< 10	< 10	< 10	< 10	–	–	–	–
Cc1nc2ccc(COC(=O)Nc3cc(OC(F)(F)F)ccc3F)cc2cc1C1CCC(=O)NC1=O (centres unmarked) [Compound 7, (3-(2,6-dioxopiperidin-3-yl)-2-methylquinolin-6-yl)methyl (2-fluoro-5-(trifluoromethoxy)phenyl)carbamate]	< 500	10 to 50	> 3160	≥ 50	25 to 50	< 10	< 10	–	–	–	–
Cc1nc2ccc(CNC(=O)C(=O)c3ccc(C(C)(C)C)cc3)cc2cc1C1CCC(=O)NC1=O (centres unmarked) [Compound 1, 2-(4-(tert-butyl)phenyl)-N-((3-(2,6-dioxopiperidin-3-yl)-2-methylquinolin-6-yl)methyl)-2-oxoacetamide]	< 500	> 50	< 316	≥ 50	25 to 50	10 to 25	< 10	–	–	–	–
Cc1nc2cc(OC(C)C(=O)NC3CCCCC3)ccc2cc1C1CCC(=O)NC1=O (centres unmarked) [Compound 36, N-cyclohexyl-2-((3-(2,6-dioxopiperidin-3-yl)-2-methylquinolin-7-yl)oxy)propenamide]	< 500	< 10	> 3160	< 10	< 10	< 10	< 10	–	–	–	–
Cc1ccc(NC(=O)OCc2cc3nc(C)c(C4CCC(=O)NC4=O)cc3cc2C)cc1Cl (centres unmarked) [Compound 68, (3-(2,6-dioxopiperidin-3-yl)-2,6-dimethylquinolin-7-yl)methyl (3-chloro-4-methylphenyl)carbamate]	> 1000	< 10	> 3160	< 10	< 10	< 10	< 10	–	–	–	–
Cc1nc2cc(COC(=O)NC3CCN(c4ccccc4)CC3)ccc2cc1C1CCC(=O)NC1=O (centres unmarked) [Compound 47, (3-(2,6-dioxopiperidin-3-yl)-2-methylquinolin-7-yl)methyl (1-phenylpiperidin-4-yl)carbamate]	< 500	10 to 50	> 3160	< 10	< 10	< 10	< 10	–	–	–	–
Cc1nc2ccc(CNC(=O)NC3CCCCC3)cc2cc1N1CCC(=O)NC1=O [Compound 52, 1-cyclohexyl-3-((3-(2,4-dioxotetrahydropyrimidin-1(2H)-yl)-2-methylquinolin-6-yl)methyl)urea]	> 1000	10 to 50	316 to 3160	≥ 50	25 to 50	10 to 25	< 10	–	–	–	–
